Measurements as given in patent publication US7915050B2, “Regulatory genes for plant differentiation and growth, and use of the same” (National University Corporation Nagoya University, priority 2005, dated 2011).
pIC50, pKd: −log10 of the molar value.

Assays:
[1] = target: T1, AtGID1a (Arabidopsis thaliana, UniProt Q9MAA7); test: Competitive ability of GA in AtGID1-GA binding (AtGID1a)
T1 construct: made in house; host or cells: E. coli
T1 sequence (Q9MAA7 1-345): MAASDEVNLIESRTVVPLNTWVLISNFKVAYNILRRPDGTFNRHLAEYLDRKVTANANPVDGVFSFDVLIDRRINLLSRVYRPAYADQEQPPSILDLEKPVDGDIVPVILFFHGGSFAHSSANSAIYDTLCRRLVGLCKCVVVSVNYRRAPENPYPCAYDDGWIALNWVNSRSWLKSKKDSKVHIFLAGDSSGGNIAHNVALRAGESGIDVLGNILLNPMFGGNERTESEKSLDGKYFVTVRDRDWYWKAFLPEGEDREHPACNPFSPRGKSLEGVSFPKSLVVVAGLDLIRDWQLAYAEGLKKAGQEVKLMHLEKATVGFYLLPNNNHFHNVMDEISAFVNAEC
Description: (§1) In the gibberellin-binding assay, [1,2,16,17-^3H4]16,17-dihydro-GA4 was used as a labeled GA4. In vitro GA-binding assays were carried out using previous methods with some modifications (Nakajima, M. et al., Biochem. Biophys. Res. Comm. 241, 782-786 (1997)). The purified recombinant GID1 protein (400 pmol) was dissolved in 300 μl of binding buffer [20 mM Tris-HCl (pH 7.6), 5 mM 2-mercaptoethanol, and 0.1 M NaCl], and incubated with 100 μl of ^3H4-16,17-dihydroGA4 (6 pmol) for two hours at 25° C., either in the absence of non-labeled GA4 (total binding) or in the presence of 833-fold excess non-labeled GA4 (total non-specific binding). Then, 0.1 ml of the reaction mixture was loaded onto a NAP-5 column (Amersham Biosciences, Piscataway, N.J.). The eluate of the binding buffer (0.6 ml) was discarded, the subsequent eluate (0.2 ml) was collected, and the radioactivity was measured. The specific binding activity, reflecting the number of displaceable GA binding sites, was calculated by subtracting the amount of nonspecific binding from the amount of total binding. The same as above can also be carried out for other GAs.
(§2) Specifically, the coding region of the AtGID1 gene was amplified by PCR using specific primers designed based on the full-length cDNA sequence of the AtGID1 gene and having appropriate restriction sites at each end. After confirmation by sequence analysis, each cDNA fragment was ligated into pET32a vector (Novagen/Merck Biosciences, Madison, Wis., USA) or pGEX-4T-2 vector (Amersham Biosciences, Piscataway, N.J., USA; currently, a part of GE Healthcare). The production of recombinant proteins was confirmed by SDS-PAGE; vector cassettes were used as negative controls. GA binding assays were carried out similarly as described above using [1,2,16,17-^3H4]-16,17-dihydro-GA4 (4.55 TBq/mmol), which was custom-made by DuPont/NEN (Boston, Mass., USA). Non-labeled GA4 (1.25 mM) was used to measure non-specific binding. Saturation experiments for the kinetic analysis were carried out using ten concentrations of 16,17-dihydro-GA4 within the range of 25 to 1,500 nM. Competition assays were performed using [1,2,16,17-^3H4]-16,17-dihydro-GA4 at 15 nM and five concentrations of the non-labeled competitor. Recombinant RGA and GAI proteins were prepared using pET32a by a previously described method.
(§3) The ligand selectivity of each AtGID1 was examined by observing the competitive inhibition, by the addition of GA to the assay mixtures, of the binding between the recombinant proteins and tritiated 16,17-dihydro-GA4 (Table 2). The ligand selectivity was evaluated using the concentration of GA that inhibits 50% of the tracer (15 nM) binding (IC50 value).

[2] = target: T2, AtGID1b (Arabidopsis thaliana, UniProt Q9LYC1); test: Scatchard analysis of GA binding of AtGID1b; details: equilibrium conditions
T2 construct: made in house; host or cells: E. coli
T2 sequence (Q9LYC1 1-358): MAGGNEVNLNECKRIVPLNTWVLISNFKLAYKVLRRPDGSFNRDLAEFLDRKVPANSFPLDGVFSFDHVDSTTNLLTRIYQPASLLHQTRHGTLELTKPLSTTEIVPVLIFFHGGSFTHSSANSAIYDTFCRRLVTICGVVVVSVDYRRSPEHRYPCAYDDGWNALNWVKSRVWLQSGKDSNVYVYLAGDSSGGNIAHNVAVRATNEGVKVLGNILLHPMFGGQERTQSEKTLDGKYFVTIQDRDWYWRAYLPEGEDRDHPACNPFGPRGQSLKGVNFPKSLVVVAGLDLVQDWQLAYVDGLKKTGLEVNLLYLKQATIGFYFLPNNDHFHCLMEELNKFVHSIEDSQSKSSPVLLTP
Description: (§4) Panels A) to C) depict the results of Scatchard plot analyses for the GA binding of AtGID1. Results for AtGID1a (A), AtGID1b (B), and AtGID1c (C) are shown. The Kd values for 16,17-dihydro-GA4 was determined by adding various concentrations of GA to the assay mixture. Standard deviation (SD) was determined from these three independent measurements. The insets show time-course characteristics for the GA binding of AtGID1 and replacement (arrow) using an excess amount of non-labeled GA4 (0.125 mM). Panels D) to F) depict the GA binding activities of AtGID1 under different pH conditions. Results for AtGID1a (D), AtGID1b (E), and AtGID1c (F) are shown. The non-specific binding activity (UB) was determined by adding 0.125 mM GA4 to the assay solution, and this was subtracted from the total binding activity (B) to determine the specific binding activity (B-UB).
(§5) Specifically, the coding region of the AtGID1 gene was amplified by PCR using specific primers designed based on the full-length cDNA sequence of the AtGID1 gene and having appropriate restriction sites at each end. […]
(§6) The kinetics, ligand selectivity, and pH dependence of GA binding for the three AtGID1s identified as described above were examined using the tritiated GA4 derivative 16,17-dihydro-GA4. […] Furthermore, the kinetics of GA binding of each AtGID1 was analyzed under equilibrium conditions of GA at various concentrations.

[3] = target: T1, AtGID1a; test: Scatchard analysis of GA binding of AtGID1a; details: equilibrium conditions
Description: as §4, §5, §6

[4] = target: T2, AtGID1b; test: Competitive ability of GA in AtGID1-GA binding (AtGID1b)
Description: as §1, §2, §3

[5] = tracer 15 nM, mean of at least two measurements

For CC1C[C@]23C[C@H]1CCC2[C@]12CC[C@H](O)[C@](C)(C(=O)O1)[C@H]2[C@@H]3C(=O)O (stereo partly drawn) [H2-GA4, 16,17-dihydro-GA4], the “relative value, taking the value for GA4 as 100” value [1] was “(8) %”, the pIC50 [1, 5] was 5.40 and the pKd [2] was 6.32. For the same compound, the pKd [3] was 5.70, the “relative value, taking the value for GA4 as 100” value [4] was “(8) %” and the pIC50 [4, 5] was 6.40.
